# Source: publication PMC4559766 (Scientific Reports, 2015)
# Several values for one entry are separate records, joined by “and”; a condition that tells them apart may be missing. Equal entries are not always repeated.
# Tests used:
# [1] = target: T1, recombinant human TNFRI (hTNFRI) (Homo sapiens, UniProt P19438); assay: SPR binding affinity to hTNFR I (BIAcore 3000); conditions: SPR and ITC
# T1 construct: purchased Sino Biological Inc
# T1 sequence (P19438 30-211 limits assumed): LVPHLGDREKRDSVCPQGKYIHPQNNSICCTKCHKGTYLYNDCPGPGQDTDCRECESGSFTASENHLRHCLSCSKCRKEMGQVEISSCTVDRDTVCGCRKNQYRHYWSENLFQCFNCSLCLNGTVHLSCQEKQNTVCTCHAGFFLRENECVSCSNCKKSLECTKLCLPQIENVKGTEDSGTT
# Excerpt: (§1) BIAcore kinetic evaluation Ver. 4.1 software and Microcal ORIGIN Ver. 5.0 software were respectively used to determine the dissociation constant (KD).
# [2] = target: T2, recombinant human TNFRII (hTNFRII) (Homo sapiens, UniProt P20333); assay: SPR binding affinity to hTNFR II (BIAcore 3000); conditions: SPR and ITC
# T2 construct: purchased Sino Biological Inc
# T2 sequence (P20333 23-257 limits assumed): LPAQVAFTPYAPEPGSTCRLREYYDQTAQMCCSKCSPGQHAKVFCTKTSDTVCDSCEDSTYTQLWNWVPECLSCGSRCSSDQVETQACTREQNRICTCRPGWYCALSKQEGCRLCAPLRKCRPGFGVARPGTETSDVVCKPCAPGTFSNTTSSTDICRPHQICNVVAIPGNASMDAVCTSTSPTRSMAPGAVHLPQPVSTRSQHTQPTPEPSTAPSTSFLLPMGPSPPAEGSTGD
# Excerpt: as §1
# [3] = test system: Factor Xa; assay: In vitro factor Xa enzyme digestion half-life; format: in vitro ADME; conditions: FXa 0.112 unit, 37 °C, 0-48 hours, HPLC-ESI-MS
# Experimental: FXa (0.112 unit) were added into the mixture. After being thoroughly mixed, the mixture was divided into six aliquots to six PCR tubes and hydrolyzed at 37 °C in dark for 48 hours. Samples were respectively obtained at different time points (0, 12, 24, 36 and 48 hours) and each of samples was boiled for 5 minutes to quench the reaction and centrifuged.
# [4] = test system: HUVEC cells; assay: Proliferation inhibition of HUVEC cells (Cell Counting Kit-8); format: cell-based, human; conditions: 20 nM, 48 hours
# Experimental: (§2) Du145, Raji, K562, Eca109, HeLa, MCF-7, MDA-MB-231 cells or non-tumorigenic epithelial cells MCF10A and HUVEC cells in logarithmic growth phase were respectively seeded into 96-well plates with the number of 8000 cells per well and incubated for 24 hours. […] The cells were counted with Cell Counting Kit-8. The IC50 was calculated using SPSS 17.0-Logit.
# [5] = test system: human mammary non-tumorigenic epithelial cells MCF10A; assay: Proliferation of non-tumorigenic epithelial cells MCF10A (Cell Counting Kit-8); format: cell-based; conditions: 20–900 nM, 48 hours
# Experimental: as §2
# [6] = target: T3, human TNFRI of ML-la cells (Homo sapiens, UniProt P19438); assay: Competition receptor binding assay, [125I]TNF α displacement from TNFRI; parameters: unit not given beside the values
# T3 construct: ML-la cells (a human myelomonoblastic leukemia cell line, 1 × 10^6 cells/well) were preincubated with either anti-p60 antibody or anti-p80 antibody; endogenous in cells; host or cells: ML-la (ML-1a) human myelomonoblastic leukemia cells
# T3 sequence (P19438 30-455): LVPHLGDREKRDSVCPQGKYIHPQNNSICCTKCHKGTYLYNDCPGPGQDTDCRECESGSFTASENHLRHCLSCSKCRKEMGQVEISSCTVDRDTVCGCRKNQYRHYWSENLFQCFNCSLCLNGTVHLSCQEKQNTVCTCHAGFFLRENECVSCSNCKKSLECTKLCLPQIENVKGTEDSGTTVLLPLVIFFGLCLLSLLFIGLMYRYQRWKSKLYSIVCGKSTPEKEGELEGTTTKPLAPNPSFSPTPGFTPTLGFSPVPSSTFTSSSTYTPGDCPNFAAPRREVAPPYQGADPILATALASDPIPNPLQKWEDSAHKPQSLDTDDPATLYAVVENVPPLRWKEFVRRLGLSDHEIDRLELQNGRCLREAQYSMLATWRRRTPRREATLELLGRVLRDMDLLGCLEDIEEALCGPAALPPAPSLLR
# Experimental: Free iodine was removed by gel filtration on a G-25 column equilibrated with phosphate-buffered saline containing 0.1% gelatin. […] Thereafter cells were washed three times with 150 μl of ice-cold phosphate-buffered saline containing 0.1% bovine serum albumin. Then each well was cut from the plate with a scissors, and cell-bound radioactivity was determined by an Apec-Series […] (ICN Biomedicals, Inc., Costa Mesa, CA)[51].
# [7] = test system: Du145 cells; assay: Apoptosis of Du145 cells, Annexin V-FITC/PI double staining-flow cytometry; format: cell-based, human
# Experimental: (§3) Du145 cells in logarithmic growth phase were seeded into 6-well plates with number of 3 × 10^5 cells per well.
# [8] = test system: Du145 cells; assay: Cell cycle of Du145 cells, PI single staining-flow cytometry; format: cell-based, human; conditions: 20 nM, 48 hours
# Experimental: as §3
# [9] = test system: Du145 transplanted tumor; assay: Subcutaneous Du145 transplanted tumor in nude mice; format: in vivo, BALB/c-nu/nu nude mice; conditions: tail vein once a day for 4 weeks; 0.1 ml of 40 nM RMP16 or P16, estramustine 60 mg/kg; by average tumor weight versus NaCl group; n = 6
# Experimental: Thirty male 4-week-old BALB/c-nu/nu nude mice (17–19 g), were divided into five groups. CK group (blank control) was the mice which were not inoculated Du145 cells, and the remaining four groups received inoculation of Du145 cells. 0.2 ml of Du145 cells suspension with the concentration of 1.5 × 10^7 cells/ml was injected subcutaneously into the right side of back of nude mice. […] The weights and volumes of tumors in different groups were measured once every four days, and tumor growth curves for each group were plotted.
# [10] = test system: Du145 transplanted tumor; assay: Microvessel density of removed tumors (anti-CD31 immunohistochemistry, Weidner method); format: in vivo, BALB/c-nu/nu nude mice; conditions: tumors removed after 4 weeks of administration, anti-CD31, n = 6
# Experimental: (§4) Four weeks after administration, the mice were executed, and the tumors of different groups were removed and fixed with 10% neutral formalin or 2.5% glutaraldehyde. The fixed tumor tissue slides were subjected to Hematoxylin-eosin (HE) staining, immunohistochemistry in which anti-CD31 antibody and biotin-labeled IgG were respectively used as the first and second antibody, and TEM analysis. The microvessel densitied (MVD) in different tumor tissues was calculated using the Weidner method.
# [11] = test system: Du145 transplanted tumor; assay: TEM of removed tumors, cells with typical apoptosis characteristic; format: in vivo, BALB/c-nu/nu nude mice; conditions: TEM of tumors removed after 4 weeks of administration
# Experimental: as §4
# [12] = test system: chick chorioallantoic membrane; assay: Chick chorioallantoic membrane model of angiogenesis; format: in vivo; conditions: 72 hours at 37 °C
# Experimental: Thirty fertilized chick embryos were randomly divided into five groups and incubated in the thermostatic incubator at 37 °C for six days (blunt end up). Drill a small window about 1 cm × 1 cm on the eggshell on the gas chamber side of chick embryo, meanwhile, also drill a small hole at the gas chamber, so that an artificial gas chamber was formed at the window. After removing the shell and shell membrane, the chicken chorioallantoic membrane (CAM) was exposed. […] The window was sealed with transparent tape, and chick embryos were incubated at 37 °C for 72 hours in thermostatic incubator.
# [13] = Pharmacokinetics in BALB/c mice after intravenous injection
# Experimental: Blood samples were collected by eye bleed from three mice at per time point prior to dosing and from 0.5 to 24 hours postdosing, and the plasma portion was analyzed by using an electrospray ionization, LC/MS/MS method described previously[48]. […] Tri (2-carboxyethyl) phosphine hydrochloride (TCEP) was used as a reducing agent to enhance peptide recovery and was added to all samples at a final concentration of 2 mM. After removing the plasma proteins through adding acetonitrile and centrifugation, the supernatant was transferred to another 96-well plate. Samples were analyzed by LC/MS/MS. Pharmacokinetic parameters were fitted to a two-compartment elimination model, and drug exposure (AUC), elimination half-life (t1⁄2), volume of distribution (Vd) and the clearance (CL) were calculated using WinNonlin Ver.
# [14] = Blood biochemical indexes of liver and kidney function in tumor-bearing nude mice; conditions: serum at end of 4 weeks of administration, n = 6
# Experimental: The blood was collected and centrifuged at the end of administration for 4 weeks. The serum was placed into eppendorf (EP) tube and immediately sent to the First Affiliated Hospital of Jinan University where several tests closely related to liver/kidney function were performed, and the blood biochemical indexes AST, ALT, AST/ALT, ALB, GLB, ALB/GLB, DBILI, IBILI, TBILI, BUN and CREA were obtained.
# [15] = BALB/c, mouse, plasma, iv, 5 mg/kg
structure (smiles),measurement,setting,value
CC[C@H](C)[C@H](NC(=O)[C@H](CCCNC(=N)N)NC(=O)[C@H](CO)NC(=O)[C@@H](NC(=O)[C@@H](NC(=O)[C@H](Cc1c[nH]cn1)NC(=O)[C@@H](NC(=O)[C@H](CC(C)C)NC(=O)[C@H](CC(C)C)NC(=O)[C@H](CCCNC(=N)N)NC(=O)CNC(=O)[C@H](CCC(=O)O)NC(=O)[C@@H](NC(=O)[C@H](Cc1c[nH]c2ccccc12)NC(=O)[C@H](CO)NC(=O)[C@H](CO)NC(=O)[C@@H]1CCCN1C(=O)[C@H](CCCNC(=N)N)NC(=O)[C@H](CCC(N)=O)NC(=O)[C@H](Cc1c[nH]c2ccccc12)NC(=O)[C@@H](N)CCSC)[C@@H](C)CC)[C@@H](C)O)[C@@H](C)O)[C@@H](C)CC)C(=O)N[C@@H](C)C(=O)N[C@H](C(=O)N[C@@H](CO)C(=O)N[C@@H](Cc1ccc(O)cc1)C(=O)N[C@@H](CCC(N)=O)C(=O)N[C@H](C(=O)N[C@@H](CCCCN)C(=O)N[C@H](C(=O)N[C@@H](CC(N)=O)C(=O)N[C@@H](CC(C)C)C(=O)N[C@@H](CC(C)C)C(=O)O)C(C)C)[C@@H](C)O)C(C)C [RMP16],binding affinity for hTNFRI higher than that for hTNFRII,[1],~410 times
same,bound less strongly to hTNFRI than did TNF α,[1],~4.5 times
same,bound less strongly to hTNFRII than did TNF α,[2],~6600 times
same,factor Xa enzyme digestion half-life in the presence of HSA,[3]; 10 μM peptide in PBS with 2 μM HSA,15.83 h
same,half-life at 10 μM,"[3]; factor Xa (FXa) enzyme digestion in PBS without HSA, 10 μM peptide in PBS without HSA, read-out: factor Xa enzyme digestion half-life in the absence of HSA (converted)",583 min
same,effect on proliferation of HUVEC,[4],significantly inhibited the proliferation
same,effect on proliferation of MCF10A cells,[5],not significant effect
same,IC50 of displacing [125I]TNF α from TNFRI as multiple of that from TNFRII,[6],1/400
same,increase of apoptosis rate for Du145 cells,"[7]; 20 nM, 48 h, Annexin V-FITC/PI flow cytometry, versus PBS",14.21%
same,cell pro-apoptotic effect after TNFRI blocking,[7]; Du145 cells pre-incubated with 100 nM H398 (TNFRI-selective inhibitor) for 30 minutes at 37 °C before 20 nM RMP16,disappeared
same,increase of Du145 cells remaining in G0/G1 phase,[8],13.1%
same,reduction of Du145 cells remaining in S phase and G2/M phase,[8],12.9%
same,tumor inhibition rate,[9],~80% and 78.11%
same,microvessel density (MVD),[10],6.4 ± 0.62
same,percent of the tumor cells with typical apoptosis characteristic,[11],about 79.6%
same,"vessel branch points, dose of 2 μg","[12]; 2 μg on filter membrane, n = 6",28.02 ± 1.37
same,"inhibition rate of angiogenesis, 2 μg","[12]; 2 μg on filter membrane, versus NaCl group",54.13 ± 5.13%
same,"vessel branch points, dose of 4 μg","[12]; 4 μg on filter membrane, n = 6",12.31 ± 2.95
same,"inhibition rate of angiogenesis, 4 μg","[12]; 4 μg on filter membrane, versus NaCl group",79.94 ± 4.64%
same,AUC,[13]; [15],1360 µg·h/mL
same,Vd,[13]; [15],0.0695 L/kg
same,clearance,[13]; [15],3.68 mL/h/kg
same,half-life,[13]; [15],786 min
same,half-life in mice,"[13]; in mice, as stated in abstract",13.11 h
same,ALB,[14],17.2 ± 0.2 g/L
same,ALT,[14],100.5 ± 20.5 U/L
same,AST,[14],154 ± 28 U/L
same,CREA,[14],10.5 ± 0.5 µM
same,DBILI,[14],3 ± 0.7 µM
same,GLB,[14],41.7 ± 1 g/L
same,IBILI,[14],9.25 ± 0.55 µM
same,TBILI,[14],12.25 ± 0.15 µM
